The target of one assay is CDK1/Cyclin B1 (Homo sapiens (Human), UniProt P06493). The assay can be described thus: CDK1/Cyclin B1 ADP-Glo Kinase Assay. The format is biochemical. Conditions: 80 uM ATP. How it is done: CDK1/Cyclin B1 ADP-Glo Kinase Assay
(§1) The purpose of CDK1/Cyclin B1 assay is to evaluate the inhibition (% inhibition and IC50 values) of small molecule inhibitors by using a Luminescent based ADP-Glo assay. CDK1/Cyclin B1 catalyzes the production of ADP from ATP. ADP-Glo assay monitors ADP producing biochemical reactions. ADP-Glo is performed in 2 steps upon completion of kinase reaction: a combined termination of kinase reaction and depletion of remaining ATP in the first step, and conversion of generated ADP to ATP and the newly produced ATP to light output using luciferase/luciferin reaction in the second step. The luminescent signal generated is proportional to the ADP concentration produced and is correlated with the kinase activity. CDK1/Cyclin B1 was purchased from Carna (Cat 04-102). Typical reaction solutions (10 uL final reaction volume) contained 2% DMSO (f inhibitor), 10 mM MgCl2, 1 mM EGTA, 0.05% BSA, 2 mM DTT, 80 uM ATP (ATP Km=78.6 uM), 0.01% Brig-35, 0.75 uM substrate, and 4.917 nM CDK1/Cyclin Bl enzyme complex in 50 mM HEPES buffer at pH 7.5. The assay was initiated with the addition of ATP-containing substrate solution, following a 30-minute pre-incubation of enzyme and inhibitor at room temperature in the reaction mixture. The reaction was stopped after 90 minutes at room temperature by the addition of 10 uL of ADP-GLO Reagent. After a 90 minute incubation, 20 uL of Kinase Detection Reagent was added. Samples were incubated for 40 minutes, after which plate well luminescence was measured on a Envision microplate reader. The IC50 determinations were made from a plot of the fractional velocity as a function of inhibitor concentration fit to the 4 parameters IC50 equation.

Assay [1] addresses CDK2/Cyclin E1 full length (Homo sapiens (Human), UniProt P24941). Put plainly: CDK2/Cyclin E1 Full Length ADP-Glo Kinase Assay. In kind it is biochemical. Conditions: 20 uM ATP, read-out: CDK2/ CyclinE1 IC50. On the procedure: CDK2/Cyclin E1 Full Length ADP-Glo Kinase Assay
The purpose of CDK2/Cyclin E1 assay is to evaluate the inhibition (% inhibition and IC50 values) of small molecule inhibitors by using a Luminescent based ADP-Glo assay. CDK2/Cyclin E1 full length catalyzes the production of ADP from ATP. ADP-Glo assay monitors ADP producing biochemical reactions. ADP-Glo is performed in 2 steps upon completion of kinase reaction: a combined termination of kinase reaction and depletion of remaining ATP in the first step, and conversion of generated ADP to ATP and the newly produced ATP to light output using luciferase/luciferin reaction in the second step. The luminescent signal generated is proportional to the ADP concentration produced and is correlated with the kinase activity. CDK2/Cyclin E1 was purchased from Eurofins (Cat 14-475M). Typical reaction solutions (10 uL final reaction volume) contained 2% DMSO (f inhibitor), 10 mM MgCI2, 1 mM EGTA, 0.05% BSA, 2 mM DTT, 20 uM ATP (ATP Km=64.78 uM), 0.01% Brig-35, 0.75 uM substrate, and 0.328 nM wild-type full length CDK2/Cyclin E1 enzyme complex in 50 mM HEPES buffer at pH 7.5. The assay was initiated with the addition of ATP-containing substrate solution, following a 30-minute pre-incubation of enzyme and inhibitor at room temperature in the reaction mixture. The reaction was stopped after 90 minutes at room temperature by the addition of 10 uL of ADP-GLO Reagent. After a 90 minute incubation, 20 uL of Kinase Detection Reagent was added. Samples were incubated for 40 minutes, after which plate well luminescence was measured on a Envision microplate reader. The IC50 determinations were made from a plot of the fractional velocity as a function of inhibitor concentration fit to the 4 parameters IC50 equation.

The next assay addresses CDK4/Cyclin D1 (Homo sapiens (Human), UniProt P11802). Put plainly: CDK4/Cyclin D1 CHEF Assay (AQT0258 peptide). In kind it is biochemical. Conditions: 200 uM ATP, read-out: CDK4/ CyclinD1 AQT IC50. An excerpt: CDK4/Cyclin D1 CHEF Assay
The purpose of CDK4/Cyclin Dl assay is to evaluate the inhibition (% inhibition and IC50 values) of small molecule inhibitors by using a Chelation-Enhance Fluorescence (CHEF) assay. In a CHEF assay, phosphorylation of a peptide substrate results in proportional increase in fluorescence. CHEF kinase assay use peptide substrates containing a synthetic alpha-amino acid with a side chain bearing an 8-hydroxyquinoline derivative (sulfonamido-oxide, Sox). Upon phosphorylation of a nearby serine, threonine or tyrosine and in the presence of Mg(II), the spectral properties of the Sox residue are altered, emitting 485 nm wavelength light when excited with a 360 nm wavelength light source. CDK4/Cyclin D1 catalyzes the phosphoryl transfer to the SOX-labeled substrate peptide AQT0258 from Assayquant Technologies. Typical reaction solutions contained 2% DMSO (+/−inhibitor), 10 mM MgCl2, 1 mM DTT, 200 uM ATP (ATP Km=195.2 uM), 0.012% Brig-35, 10 uM AQT0258 peptide, 0.02% BSA, 1% Glycerol, 0.55 mM EGTA, 2.5 nM CDK4/Cyclin D1 in 54 mM HEPES buffer at pH 7.5. The reaction was initiated with the addition of substrate solution, following a 30-minute pre-incubation of enzyme and inhibitor at 22° C. in the reaction mix. Reactions were allowed to proceed for 3 hrs at 22° C., followed by fluorescence read of the reaction. The IC50 determinations were made from a plot of the fractional velocity as a function of inhibitor concentration fit to the 4 parameters IC50 equation.

In another assay the target is CDK6/Cyclin D3 (Homo sapiens (Human), UniProt Q00534). Put plainly: CDK6/Cyclin D3 ADP-Glo Kinase Assay. The format is biochemical. Conditions: 100 uM ATP, read-out: CDK6/ CyclinD3 IC50. On the procedure: CDK6/Cyclin D3 ADP-Glo Kinase Assay
Sequence of CDK6/Cyclin D3 (Q00534 whole entry): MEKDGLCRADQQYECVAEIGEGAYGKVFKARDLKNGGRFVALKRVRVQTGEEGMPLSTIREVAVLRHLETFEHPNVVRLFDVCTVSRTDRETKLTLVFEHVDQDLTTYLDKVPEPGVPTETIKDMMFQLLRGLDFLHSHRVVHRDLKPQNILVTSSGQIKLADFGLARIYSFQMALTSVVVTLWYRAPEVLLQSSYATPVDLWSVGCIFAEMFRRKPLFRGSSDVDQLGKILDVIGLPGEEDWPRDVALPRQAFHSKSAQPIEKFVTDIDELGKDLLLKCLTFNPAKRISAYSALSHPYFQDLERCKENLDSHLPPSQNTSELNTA
Sequence of CDK6/Cyclin D3 (P30281 whole entry partner): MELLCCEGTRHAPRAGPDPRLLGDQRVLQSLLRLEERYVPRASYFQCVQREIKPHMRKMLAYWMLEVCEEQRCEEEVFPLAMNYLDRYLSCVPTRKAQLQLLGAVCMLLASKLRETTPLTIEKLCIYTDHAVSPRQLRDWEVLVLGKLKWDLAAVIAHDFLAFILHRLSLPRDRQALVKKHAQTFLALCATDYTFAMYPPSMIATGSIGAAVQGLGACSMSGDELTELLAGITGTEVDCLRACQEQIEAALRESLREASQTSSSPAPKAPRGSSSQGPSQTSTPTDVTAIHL
as §1, with “of the CDK6/Cyclin D3” for “of CDK1/Cyclin B1”, “values) in the presence” for “values)”, “assay. CDK6/Cyclin D3” for “assay. CDK1/Cyclin B1”, “activity. CDK6/Cyclin D3” for “activity. CDK1/Cyclin B1”, “from Carna. […]” for “from Carna (Cat 04-102). Typical reaction solutions (10 uL final reaction volume) contained 2% DMSO (f inhibitor), 10 mM MgCl2, 1 mM EGTA, 0.05% BSA, 2 mM DTT, 80 uM ATP (ATP Km=78.6 uM), 0.01% Brig-35, 0.75 uM substrate, and 4.917 nM CDK1/Cyclin Bl enzyme complex in 50 mM HEPES buffer at pH 7.5.”, “a 90-minute” for “a 90 minute”

For the next assay, the system named is MCF-7 cells. The assay can be described thus: Cell Growth Inhibition, MCF-7 (CellTiterGlo, 6 days). In kind it is cell-based. Conditions: Homo sapiens, MCF7, 144 h; MCF-7, 6-day treatment, CellTiterGlo 2.0. The text has this:
(§2) MCF-7 and OVCAR-3 cells were used to evaluate the anti-proliferation activity of the CDK inhibitors. MCF-7 (ATCC, HTB-22) cells are epithelial cells from a patient with ER+ metastatic adenocarcinoma. OVCAR-3 (ATCC, HTB-161) cells were derived from malignant ascites of a patient with ovarian cancer and are known to have CCNE1 amplification. Both cell lines were maintained in RPMI media supplemented with 10% fetal bovine serum. For cell growth inhibition assay, CDK inhibitors in DMSO solution were dispensed with either Echo 655 (Beckman Coulter) or Tecan D300e (HP) into 384-well plates (Corning #3765) and the 384-well plates were UV-sterilized prior to the assay. The inhibitors were typically tested in the 10-10,000 nM concentration range with half-log serial dilutions. MCF-7 or OVCAR-3 (500 cells/30 μL/well) were added to each well using Multidrop Combi (ThermoFisher) using standard cassettes. The assay plates with cells were cultured at 37° C., 5% CO2 for 6 days. At the end of the 6-day treatment, 30 μL of CellTiterGlo 2.0 (Promega) was added to each well and the luminescent signal was read using CLARIOstar plus (BMG). The percentage of cell growth inhibition (% CGI) was calculated using the following formula % CGI=100−100×luminescencesample/luminescencecontrol. The half maximal inhibitory concentration (IC50) was determined by nonlinear curve fitting (four parameters, variable slope).

The next assay relates to OVCAR-3 cells. The assay can be described thus: Cell Growth Inhibition, OVCAR-3 (CellTiterGlo, 6 days). Conditions: Homo sapiens, 144 h; OVCAR-3, 6-day treatment, CellTiterGlo 2.0. In kind it is cell-based.
From the text: as §2

Each structure is given as a SMILES string.

We go through nine compounds from US20240092761A1, “QUINAZOLINE COMPOUNDS AND METHODS OF USE” (IAMBIC THERAPEUTICS, INC., priority 2022, published 2024).

Sequence of CDK1/Cyclin B1 (P06493 whole entry): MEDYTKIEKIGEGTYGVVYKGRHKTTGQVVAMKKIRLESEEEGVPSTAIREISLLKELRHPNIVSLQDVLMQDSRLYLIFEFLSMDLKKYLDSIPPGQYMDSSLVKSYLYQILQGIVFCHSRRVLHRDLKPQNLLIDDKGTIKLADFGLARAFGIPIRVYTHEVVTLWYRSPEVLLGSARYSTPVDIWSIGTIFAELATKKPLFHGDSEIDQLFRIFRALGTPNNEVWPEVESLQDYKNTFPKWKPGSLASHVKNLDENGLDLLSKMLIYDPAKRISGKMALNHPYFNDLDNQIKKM
Sequence of CDK1/Cyclin B1 (P14635 whole entry partner): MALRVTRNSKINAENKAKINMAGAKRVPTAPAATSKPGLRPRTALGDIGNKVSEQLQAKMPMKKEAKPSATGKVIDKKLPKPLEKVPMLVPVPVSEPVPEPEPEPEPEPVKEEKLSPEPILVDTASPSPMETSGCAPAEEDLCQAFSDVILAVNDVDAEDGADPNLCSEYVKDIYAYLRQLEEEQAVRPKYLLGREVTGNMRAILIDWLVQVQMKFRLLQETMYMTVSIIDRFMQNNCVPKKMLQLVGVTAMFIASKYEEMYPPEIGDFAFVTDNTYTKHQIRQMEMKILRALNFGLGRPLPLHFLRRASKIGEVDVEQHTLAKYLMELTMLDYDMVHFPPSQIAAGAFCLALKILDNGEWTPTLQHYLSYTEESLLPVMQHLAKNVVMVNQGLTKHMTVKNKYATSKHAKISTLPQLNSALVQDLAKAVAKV
Sequence of CDK4/Cyclin D1 (P11802 whole entry): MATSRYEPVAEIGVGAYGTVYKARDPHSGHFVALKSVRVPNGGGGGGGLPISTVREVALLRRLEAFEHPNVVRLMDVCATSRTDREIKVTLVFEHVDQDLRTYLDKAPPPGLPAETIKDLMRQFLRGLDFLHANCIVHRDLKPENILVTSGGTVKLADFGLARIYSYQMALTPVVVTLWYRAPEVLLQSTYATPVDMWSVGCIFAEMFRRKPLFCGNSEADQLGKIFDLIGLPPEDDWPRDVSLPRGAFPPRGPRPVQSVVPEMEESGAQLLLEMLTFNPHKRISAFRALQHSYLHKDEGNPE
Sequence of CDK4/Cyclin D1 (P24385 whole entry partner): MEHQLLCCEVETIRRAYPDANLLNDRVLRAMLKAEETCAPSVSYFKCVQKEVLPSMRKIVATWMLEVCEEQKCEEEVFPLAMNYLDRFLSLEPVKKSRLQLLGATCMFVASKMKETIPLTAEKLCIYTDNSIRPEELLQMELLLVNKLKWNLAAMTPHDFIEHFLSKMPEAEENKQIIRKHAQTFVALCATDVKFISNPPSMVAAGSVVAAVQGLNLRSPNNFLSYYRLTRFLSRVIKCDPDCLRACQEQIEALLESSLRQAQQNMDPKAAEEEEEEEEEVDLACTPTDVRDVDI

`CS(=O)(=O)N1CCC(Nc2ncc3cc(C(F)F)cc(C4CC5(CCN(CC(F)F)C5)C4)c3n2)CC1` (stereo not shown) [Example 100, 8-(6-(2,2-difluoroethyl)-6-azaspiro[3.4]octan-2-yl)-6-(difluoromethyl)-N-(1-(methylsulfonyl)piperidin-4-yl)quinazolin-2-amine]: the IC50 against CDK1/Cyclin B1 is below 200 nM; in assay [1] it was below 200 nM; on CDK4/Cyclin D1 it was below 200 nM; at CDK6/Cyclin D3, below 200 nM; with MCF-7 cells, 200 to 500 nM; in the assay on OVCAR-3 cells it was 500 to 2000 nM.

As for `CN1CCc2cc(Nc3ncc4cc(C(F)F)cc(N5CC6(C5)CN(C5CC5)C6)c4n3)ccc2C1` [Example 79, 8-(6-cyclopropyl-2,6-diazaspiro[3.3]heptan-2-yl)-6-(difluoromethyl)-N-(2-methyl-1,2,3,4-tetrahydroisoquinolin-6-yl)quinazolin-2-amine], the IC50 is above 2000 nM against CDK1/Cyclin B1; 200 to 500 nM in assay [1]; below 200 nM on CDK4/Cyclin D1; below 200 nM on CDK6/Cyclin D3; 500 to 2000 nM in the assay with MCF-7 cells; 500 to 2000 nM in the assay on OVCAR-3 cells.

Regarding `COC1CC2(C1)CC(c1cc(C(F)F)cc3cnc(NC4CCN(S(C)(=O)=O)CC4)nc13)C2` (stereo not shown) [Example 108, 6-(difluoromethyl)-8-(6-methoxyspiro[3.3]heptan-2-yl)-N-(1-(methylsulfonyl)piperidin-4-yl)quinazolin-2-amine], the IC50 (against CDK1/Cyclin B1; in assay [1]; at CDK4/Cyclin D1; on CDK6/Cyclin D3) was below 200 nM in each case.

On to `COC1CC2(C1)CC(c1cccc3cnc(NC4CCN(S(C)(=O)=O)CC4)nc13)C2` (stereo not shown) [Example 107, 8-(6-methoxyspiro[3.3]heptan-2-yl)-N-(1-(methylsulfonyl)piperidin-4-yl)quinazolin-2-amine], for which the IC50 against CDK1/Cyclin B1 was 500 to 2000 nM; in assay [1] it was below 200 nM; on CDK4/Cyclin D1, below 200 nM; at CDK6/Cyclin D3, below 200 nM.

As for `CS(=O)(=O)N1CCC(Nc2ncc3cccc(C4CC5(CNCC5(F)F)C4)c3n2)CC1` (stereo not shown) [Example 122, 8-(8,8-difluoro-6-azaspiro[3.4]octan-2-yl)-N-(1-(methylsulfonyl)piperidin-4-yl)quinazolin-2-amine], the IC50 (against CDK1/Cyclin B1; in assay [1]; on CDK4/Cyclin D1; at CDK6/Cyclin D3) was below 200 nM in each case.

Take `CS(=O)(=O)N1CC[C@@H](Nc2ncc3cc(C(F)F)cc(N4CC(F)(F)C5(CNC5)C4)c3n2)[C@H](O)C1` (racemic) [Example 118, (3R,4R)-4-((8-(8,8-difluoro-2,6-diazaspiro[3.4]octan-6-yl)-6-(difluoromethyl)quinazolin-2-yl)amino)-1-(methylsulfonyl)piperidin-3-ol]: the IC50 against CDK1/Cyclin B1 was 500 to 2000 nM; in assay [1], below 200 nM; on CDK4/Cyclin D1 it was below 200 nM; on CDK6/Cyclin D3, below 200 nM; in the assay on OVCAR-3 cells, above 2000 nM.

In the case of `CN1CC2(CC(c3cc(C(F)F)cc4cnc(NC5CCN(S(C)(=O)=O)CC5)nc34)C2)C1` [Example 67, 6-(difluoromethyl)-8-(2-methyl-2-azaspiro[3.3]heptan-6-yl)-N-(1-(methylsulfonyl)piperidin-4-yl)quinazolin-2-amine], the IC50 (against CDK1/Cyclin B1; in assay [1]; in the assay with MCF-7 cells; in the assay on OVCAR-3 cells) was below 200 nM in each case.

Regarding `Cn1cc(S(=O)(=O)N2CCC(Nc3ncc4cccc(N5CC(O)(C(F)F)C5)c4n3)CC2)cn1` [Example 119, 3-(difluoromethyl)-1-(2-((1-((1-methyl-1H-pyrazol-4-yl)sulfonyl)piperidin-4-yl)amino)quinazolin-8-yl)azetidin-3-ol], the IC50 is below 200 nM against CDK1/Cyclin B1; below 200 nM in assay [1]; below 200 nM at CDK4/Cyclin D1; below 200 nM at CDK6/Cyclin D3; 500 to 2000 nM with OVCAR-3 cells.

`CC(=O)N1CCC2(CCC(c3cccc4cnc(NC5CCN(S(C)(=O)=O)CC5)nc34)C2)C1` (stereo not shown) [Example 35]: the IC50 at CDK1/Cyclin B1 is 200 to 500 nM; in assay [1], below 200 nM; at CDK6/Cyclin D3, below 200 nM; with MCF-7 cells, 500 to 2000 nM; in the assay on OVCAR-3 cells, above 2000 nM.
